Laboratory results: US8563713B2, “Antibodies specific to carbamazepine” (priority 2011, dated 2013)

Each compound was assayed on antibody specific to carbamazepine (assay: Interference from other drugs in the carbamazepine ELISA assay). Conditions: chemical tested at 10.0 μg/ml; procedures of Example 4 (competitive ELISA); tested in duplicate.
Assay type: binding, rabbit
Method: Production of the antibodies of the present disclosure was performed with conventional methods. In brief, the immunogen as prepared in Example 2 was diluted to 1.0 mg/ml in phosphate buffered saline (PBS). 1.0 ml of the immunogen solution was injected into rabbits with complete Freunds adjuvant. After 2-3 weeks, the animal was injected with 1.0 ml of the same immunogen solution with incomplete Freunds adjuvant. The same injection was repeated every other week until acceptable titer was obtained.
The Carbamazepine ELISA was developed with the antibody generated from Example 3. This assay is a competitive micro-immunoassay for determination of carbamazepine in a fluid sample. Carbamazepine in the fluid sample and carbamazepine derivative linked with the enzyme (HRP)-conjugate compete for the finite sites of the antibody coated on the solid surface of the microwell. If little or no carbamazepine is present in the fluid sample, more enzyme labeled carbamazepine derivative will bind to the antibody on the solid surface. Conversely, if a large or a significant amount of carbamazepine is present in the fluid sample, less enzyme labeled carbamazepine derivative will bind to the antibody, producing less color signal. The absorbance produced is inversely proportional to the amount of carbamazepine in the fluid sample.
Interference from other drugs was tested using 30 frequently used chemicals and medicines, at concentrations of 10.0 μg/ml.
The samples were tested in duplicate, following the procedures used in Example 4. All 30 samples produced a negative test result. Thus, the immunoassay of the present disclosure is specific to carbamazepine.

Question: How did the “Equivalent Carbamazepine Conc.” value turn out when `CN(C)CCCN1c2ccccc2CCc2ccccc21` [Imipramine] was run?
Answer: <0.1 µg/mL

Question: `CCN(CC)CC(=O)Nc1c(C)cccc1C` [Lidocaine] was tested. Which “Equivalent Carbamazepine Conc.” value did it give?
Answer: <0.1 µg/mL

Question: For `CN[C@@H](C)Cc1ccccc1` [d-Methamphetamine], which “Equivalent Carbamazepine Conc.” value is on record?
Answer: <0.1 µg/mL

Question: For `CC(=O)Oc1ccccc1C(=O)O` [Acetylsalicylic Acid], which “Equivalent Carbamazepine Conc.” value is on record?
Answer: <0.1 µg/mL

Question: Which “Equivalent Carbamazepine Conc.” value does the source give for `CN1C(=O)CC[C@H]1c1cccnc1` [(−)-Cotinine] here?
Answer: <0.1 µg/mL

Question: For `COC(=O)[C@@H]1[C@H]2CC[C@@H](C[C@@H]1O)N2C` [Ecgonine Methyl Ester], which “Equivalent Carbamazepine Conc.” value is on record?
Answer: <0.1 µg/mL

Question: How did the “Equivalent Carbamazepine Conc.” value turn out when `NCCc1ccccc1` [beta-Phenylethylamine] was run?
Answer: <0.1 µg/mL

Question: How did the “Equivalent Carbamazepine Conc.” value turn out when `CCC1(CCC(C)C)C(=O)NC(=O)NC1=O` [Amobarbital] was run?
Answer: <0.1 µg/mL

Question: Which “Equivalent Carbamazepine Conc.” value does the source give for `COc1ccc2c3c1O[C@H]1C(=O)CC[C@H]4[C@@H](C2)N(C)CC[C@]314` [Hydrocodone] here?
Answer: <0.1 µg/mL

Question: `CCN(CC)CCOC(=O)c1ccc(N)cc1` [Procaine] was tested. Which “Equivalent Carbamazepine Conc.” value did it give?
Answer: <0.1 µg/mL

Question: How did the “Equivalent Carbamazepine Conc.” value turn out when Penicillin was run?
Answer: <0.1 µg/mL

Question: For `CC(C(=O)O)c1cccc(Oc2ccccc2)c1` (centres unmarked) [Fenoprofen], which “Equivalent Carbamazepine Conc.” value is on record?
Answer: <0.1 µg/mL

Question: `CC1(C)S[C@@H]2[C@H](NC(=O)[C@H](N)c3ccccc3)C(=O)N2[C@H]1C(=O)O` [Ampicillin] was tested. Which “Equivalent Carbamazepine Conc.” value did it give?
Answer: <0.1 µg/mL

Question: How did the “Equivalent Carbamazepine Conc.” value turn out when `CNC[C@H](O)c1cccc(O)c1` [Phenylephrine] was run?
Answer: <0.1 µg/mL

Question: How did the “Equivalent Carbamazepine Conc.” value turn out when `CC(C)Cc1ccc(C(C)C(=O)O)cc1` (centres unmarked) [Ibuprofen] was run?
Answer: <0.1 µg/mL

Question: Which “Equivalent Carbamazepine Conc.” value does the source give for `Cc1cc(CC(=O)O)n(C)c1C(=O)c1ccc(Cl)cc1` [Zomepirac] here?
Answer: <0.1 µg/mL

Question: How did the “Equivalent Carbamazepine Conc.” value turn out when `C=C[C@H]1C[N@@]2CC[C@H]1C[C@@H]2[C@@H](O)c1ccnc2ccc(OC)cc12` [Quinidine] was run?
Answer: <0.1 µg/mL

Question: `Cc1ccc(C)c(OCCCC(C)(C)C(=O)O)c1` [Gemfibrozil] was tested. Which “Equivalent Carbamazepine Conc.” value did it give?
Answer: <0.1 µg/mL

Question: For `CN1C(=O)CN=C(c2ccccc2)c2cc(Cl)ccc21` [Diazepam], which “Equivalent Carbamazepine Conc.” value is on record?
Answer: <0.1 µg/mL

Question: Which “Equivalent Carbamazepine Conc.” value does the source give for `CCN(CC)CCNC(=O)c1ccc(N)cc1` [Procainamide] here?
Answer: <0.1 µg/mL

Question: For `COc1ccc2cc([C@H](C)C(=O)O)ccc2c1` [Naproxen], which “Equivalent Carbamazepine Conc.” value is on record?
Answer: <0.1 µg/mL

Question: Which “Equivalent Carbamazepine Conc.” value does the source give for `O=C(O)C1N=C(c2ccccc2)c2cc(Cl)ccc2NC1=O` (centres unmarked) [Clorazepate] here?
Answer: <0.1 µg/mL

Question: How did the “Equivalent Carbamazepine Conc.” value turn out when Ecgonine was run?
Answer: <0.1 µg/mL

Question: `NC(=O)c1cccnc1` [Niacinamide] was tested. Which “Equivalent Carbamazepine Conc.” value did it give?
Answer: <0.1 µg/mL

Question: `CN[C@@H](C)[C@H](O)c1ccccc1` [(L)-Ephedrine] was tested. Which “Equivalent Carbamazepine Conc.” value did it give?
Answer: <0.1 µg/mL

Question: With `CC(N)C(O)c1ccccc1` (centres unmarked) [Phenylpropanolamine] as the compound, how does the “Equivalent Carbamazepine Conc.” value read?
Answer: <0.1 µg/mL

Question: With `O=C(O)c1cc(O)ccc1O` [Gentisic Acid] as the compound, how does the “Equivalent Carbamazepine Conc.” value read?
Answer: <0.1 µg/mL

Question: How did the “Equivalent Carbamazepine Conc.” value turn out when `Cn1c(=O)c2c(ncn2C)n(C)c1=O` [Caffeine] was run?
Answer: <0.1 µg/mL

Question: How did the “Equivalent Carbamazepine Conc.” value turn out when `CN(C)CCCN1c2ccccc2Sc2ccc(Cl)cc21` [Chlorpromazine] was run?
Answer: <0.1 µg/mL
